# Assay results from US20230265151A1, “GIP/GLP1 CO-AGONIST COMPOUNDS” (priority 2020, published 2023).
# Where two headings read alike, the source gives them in different places. *1 amine or outer side, *2 acyl side, *3 side chain or, on linkers, in order; H or OH if unused. Where a SMILES comes first, the peptide text is derived from it. Side-chain parts run from the residue outwards. [ ]: non-standard residue; d: D form. The star is where a group is joined. αMePhe(2-F) = C[C@](N)(Cc1ccccc1F)C(=O)O; γGlu = O=C(O)[C@H](CCC(=O)[*:2])N[*:1]; C14 diacid = O=C(O)CCCCCCCCCCCCC(=O)*; αMeY = C[C@](N)(Cc1ccc(O)cc1)C(=O)O; 4Pal = N[C@@H](Cc1ccncc1)C(=O)O; αMeL = CC(C)C[C@](C)(N)C(=O)O; Orn = NCCC[C@H](N)C(=O)O; AEEA = NCCOCCOCC(=O)O; Aib = CC(C)(N)C(=O)O
# Assays:
# Assay type in all cases: cell-based
# [1] = target: T1, hGIPR (Homo sapiens, UniProt P48546); assay: Functional cAMP formation (HTRF) in HEK-293 clonal cells expressing hGIPR, 0.1% bovine casein, without or with 1.0% human serum albumin; settings: for EC50: geometric mean
# T1 construct: expressed in transfected cells
# T1 sequence (P48546 22-466): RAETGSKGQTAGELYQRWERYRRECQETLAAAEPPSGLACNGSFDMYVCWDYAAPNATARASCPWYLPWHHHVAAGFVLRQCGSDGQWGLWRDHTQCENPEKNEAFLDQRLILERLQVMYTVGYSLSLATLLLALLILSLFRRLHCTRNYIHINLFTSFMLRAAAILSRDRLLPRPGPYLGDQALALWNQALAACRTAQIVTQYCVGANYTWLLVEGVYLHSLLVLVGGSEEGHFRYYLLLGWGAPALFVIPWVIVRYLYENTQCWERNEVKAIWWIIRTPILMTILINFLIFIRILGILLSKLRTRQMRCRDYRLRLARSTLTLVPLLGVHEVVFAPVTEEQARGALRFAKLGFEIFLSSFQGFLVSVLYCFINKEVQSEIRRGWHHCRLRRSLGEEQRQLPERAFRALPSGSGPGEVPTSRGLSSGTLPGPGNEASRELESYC
# Method in brief: (§1)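 Readings of the HTRF 665/620 nm ratio, which falls as cAMP rises, were converted to nM cAMP using a standard curve after 30 min peptide exposure at 37° C.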
# [2] = target: T2, hGCGR (Homo sapiens, UniProt P47871); assay: Functional cAMP formation (HTRF) in HEK-293 clonal cells expressing hGCGR, 0.1% bovine casein, without or with 1.0% human serum albumin
# T2 construct: expressed in transfected cells
# T2 sequence (P47871 26-477): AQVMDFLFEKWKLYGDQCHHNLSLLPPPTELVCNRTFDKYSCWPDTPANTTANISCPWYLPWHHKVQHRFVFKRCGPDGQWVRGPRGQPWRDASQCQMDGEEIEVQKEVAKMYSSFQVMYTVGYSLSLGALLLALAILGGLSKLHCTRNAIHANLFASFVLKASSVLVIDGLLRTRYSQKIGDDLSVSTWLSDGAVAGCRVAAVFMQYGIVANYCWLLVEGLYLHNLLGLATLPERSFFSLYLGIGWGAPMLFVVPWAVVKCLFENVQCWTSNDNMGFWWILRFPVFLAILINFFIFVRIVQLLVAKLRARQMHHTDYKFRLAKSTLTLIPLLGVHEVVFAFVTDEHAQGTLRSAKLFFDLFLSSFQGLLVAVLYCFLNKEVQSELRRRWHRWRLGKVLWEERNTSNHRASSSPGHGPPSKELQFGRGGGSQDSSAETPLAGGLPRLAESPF
# Method in brief: as §1
# [3] = target: hGLP-1R (Homo sapiens, UniProt P43220); assay: Functional cAMP formation (HTRF) in HEK-293 clonal cells expressing hGLP-1R, 0.1% bovine casein, without or with 1.0% human serum albumin; parameters: expressed in transfected cells; settings: for Emax: read-out: hGLP-1R Emax, % ± SEM
# Chain of hGLP-1R (P43220 24-463): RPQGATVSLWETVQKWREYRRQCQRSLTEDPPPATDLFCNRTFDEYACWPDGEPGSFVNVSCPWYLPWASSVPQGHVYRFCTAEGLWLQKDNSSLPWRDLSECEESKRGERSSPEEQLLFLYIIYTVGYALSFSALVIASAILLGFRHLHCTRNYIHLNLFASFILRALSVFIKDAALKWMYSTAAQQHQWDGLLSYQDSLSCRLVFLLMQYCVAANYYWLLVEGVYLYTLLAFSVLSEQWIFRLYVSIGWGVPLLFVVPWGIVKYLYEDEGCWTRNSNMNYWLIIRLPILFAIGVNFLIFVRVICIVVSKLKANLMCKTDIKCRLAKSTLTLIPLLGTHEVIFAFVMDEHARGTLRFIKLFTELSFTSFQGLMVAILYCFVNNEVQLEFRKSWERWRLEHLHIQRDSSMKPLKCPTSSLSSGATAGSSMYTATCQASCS
# Method in brief: as §1
# [4] = HEK293, 0.1% bovine casein and 1.0% human serum albumin, 37° C., percent of maximal response to GIP(1-42)NH2, read-out: hGIPR Emax, % ± SEM
# [5] = HEK293, percent of maximal response to GIP(1-42)NH2, 37° C., 0.1% bovine casein, arithmetic mean, read-out: hGIPR Emax, % ± SEM
# [6] = 0.1% bovine casein and 1.0% human serum albumin, 37° C., geometric mean, read-out: hGCGR EC50, nM (SEM, n)
# [7] = cAMP, incubated at 37° C., 0.1% bovine casein (no human serum albumin), geometric mean, read-out: hGCGR EC50, nM (SEM, n)
# [8] = 0.1% bovine casein and 1.0% human serum albumin, 37° C., geometric mean, read-out: hGLP-1R EC50, nM (SEM, n)
# [9] = HEK293, percent of maximal response to GLP-1(7-36)NH2, 37° C., 0.1% bovine casein, arithmetic mean
smiles,measurement,setting,value
CC[C@H](C)[C@H](NC(=O)[C@H](CC(C)C)NC(=O)[C@](C)(Cc1ccc(O)cc1)NC(=O)[C@@H](CCC(=O)O)NC(=O)[C@@H](NC(=O)[C@H](Cc1ccccc1)NC(=O)[C@H](CCC(=O)O)NC(=O)C(C)(C)NC(=O)[C@H](CCC(N)=O)NC(=O)[C@H](C)NC(=O)[C@H](CCCCNC(=O)COCCOCCNC(=O)COCCOCCNC(=O)CC[C@H](NC(=O)CCCCCCCCCCCCC(=O)O)C(=O)O)NC(=O)[C@H](CCCN)NC(=O)[C@H](CC(=O)O)NC(=O)[C@H](CC(C)C)NC(=O)[C@](C)(CC(C)C)NC(=O)[C@@H](NC(=O)[C@H](CO)NC(=O)[C@H](Cc1ccncc1)NC(=O)[C@H](CC(=O)O)NC(=O)[C@H](CO)NC(=O)[C@@H](NC(=O)[C@](C)(Cc1ccccc1F)NC(=O)[C@@H](NC(=O)CNC(=O)[C@H](CCC(=O)O)NC(=O)C(C)(C)NC(=O)[C@@H](N)Cc1ccc(O)cc1)[C@@H](C)O)[C@@H](C)O)[C@@H](C)CC)[C@@H](C)CC)C(=O)N[C@@H](CCC(=O)O)C(=O)NCC(=O)NCC(=O)N[C@@H](CCCCNC(=O)COCCOCCNC(=O)COCCOCCNC(=O)CC[C@H](NC(=O)CCCCCCCCCCCCC(=O)O)C(=O)O)C(=O)N[C@@H](CO)C(=O)N[C@@H](CO)C(=O)NCC(N)=O [Example 183] (H-Y[Aib]EGT[αMePhe(2-F)]TSD[4Pal]SI[αMeL]LD[Orn]K([AEEA-AEEA-γGlu-C14 diacid])AQ[Aib]EFI[dE][αMeY]LIEGGK([AEEA-AEEA-γGlu-C14 diacid])SSG-NH2),EC50,"[1]; 0.1% bovine casein and 1.0% human serum albumin, 37° C., read-out: hGIPR EC50, nM (SEM, n)",1.22 nM
same,Emax,[1]; [4],75.5%
same,Emax,[1]; [5],93.5 ± 1.46%
same,EC50,"[1]; cAMP, incubated at 37° C., 0.1% bovine casein (no human serum albumin), read-out: hGIPR EC50, nM (SEM, n)",0.0326 nM
same,EC50,[2]; [6],> 9950 nM
same,EC50,[2]; [7],> 9950 nM
same,EC50,[3]; [8],66.6 nM
same,Emax,"[3]; HEK293, 0.1% bovine casein and 1.0% human serum albumin, 37° C., percent of maximal response to GLP-1(7-36)NH2",97.3%
same,Emax,[3]; [9],93.9 ± 4.99%
same,EC50,"[3]; cAMP, incubated at 37° C., 0.1% bovine casein (no human serum albumin), geometric mean, read-out: hGLP-1R EC50, nM (SEM, n)",1.37 nM
CCCCCCCCCCCC(=O)N[C@@H](CCC(=O)NCCOCCOCC(=O)NCCCC[C@H](NC(=O)[C@H](CO)NC(=O)[C@@H]1CCCN1C(=O)[C@@H]1CCCN1C(=O)[C@@H]1CCCN1C(=O)[C@H](C)NC(=O)CNC(=O)[C@H](CO)NC(=O)[C@H](CO)NC(=O)[C@@H]1CCCN1C(=O)CNC(=O)CNC(=O)[C@H](CCC(=O)O)NC(=O)[C@@H](NC(=O)[C@H](CC(C)C)NC(=O)[C@](C)(Cc1ccc(O)cc1)NC(=O)[C@@H](CCC(=O)O)NC(=O)[C@@H](NC(=O)[C@H](Cc1ccccc1)NC(=O)[C@H](CCC(=O)O)NC(=O)C(C)(C)NC(=O)[C@H](CCC(N)=O)NC(=O)[C@H](C)NC(=O)[C@H](CCCCNC(=O)COCCOCCNC(=O)CC[C@H](NC(=O)CCCCCCCCCCC)C(=O)O)NC(=O)[C@H](CCCN)NC(=O)[C@H](CC(=O)O)NC(=O)[C@H](CC(C)C)NC(=O)[C@](C)(CC(C)C)NC(=O)[C@@H](NC(=O)C(C)(C)NC(=O)[C@H](Cc1ccncc1)NC(=O)[C@H](CC(=O)O)NC(=O)[C@H](CO)NC(=O)[C@@H](NC(=O)[C@](C)(Cc1ccccc1F)NC(=O)[C@@H](NC(=O)CNC(=O)[C@H](CCC(=O)O)NC(=O)C(C)(C)NC(=O)[C@@H](N)Cc1ccc(O)cc1)[C@@H](C)O)[C@@H](C)O)[C@@H](C)CC)[C@@H](C)CC)[C@@H](C)CC)C(N)=O)C(=O)O [Example 428],Emax,"[1]; HEK293, cAMP, 37° C., 0.1% bovine casein and 1.0% human serum albumin, percent of maximal response to GIP(1-42)NH2, read-out: hGIPR Emax, % ± SEM",93.6%
same,Emax,"[1]; HEK293, cAMP, 37° C., 0.1% bovine casein, percent of maximal response to GIP(1-42)NH2, arithmetic mean, read-out: hGIPR Emax, % ± SEM",95.5%
same,EC50,"[1]; cAMP, 37° C., 0.1% bovine casein (no human serum albumin), read-out: hGIPR EC50, nM (SEM, n)",0.00797 nM
same,EC50,"[2]; cAMP, 37° C., 0.1% bovine casein (no human serum albumin), geometric mean, read-out: hGCGR EC50, nM (SEM, n)",> 9950 nM
same,EC50,"[2]; cAMP, 37° C., 0.1% bovine casein and 1.0% human serum albumin, geometric mean (SEM, n), read-out: hGCGR EC50, nM (SEM, n)",> 9950 nM
same,Emax,"[3]; HEK293, cAMP, 37° C., 0.1% bovine casein and 1.0% human serum albumin, percent of maximal response to GLP-1(7-36)NH2",105%
same,EC50,"[3]; cAMP, 37° C., 0.1% bovine casein (no human serum albumin), geometric mean, read-out: hGLP-1R EC50, nM (SEM, n)",0.102 nM
same,EC50,"[3]; cAMP, 37° C., 0.1% bovine casein and 1.0% human serum albumin, geometric mean (SEM, n), read-out: hGLP-1R EC50, nM (SEM, n)",10.2 nM
CC[C@H](C)[C@H](NC(=O)[C@H](CC(C)C)NC(=O)C(C)(Cc1ccc(O)cc1)NC(=O)[C@H](CCCCNC(=O)[C@@H](N)CCCCNC(=O)CC[C@H](NC(=O)CCCCCCCCCCCCC(=O)O)C(=O)O)NC(=O)[C@@H](NC(=O)[C@H](Cc1ccccc1)NC(=O)[C@H](CCC(=O)O)NC(=O)C(C)(C)NC(=O)[C@H](CCC(N)=O)NC(=O)[C@H](C)NC(=O)[C@H](CCCCNC(=O)[C@@H](N)CCCCNC(=O)CC[C@H](NC(=O)CCCCCCCCCCCCC(=O)O)C(=O)O)NC(=O)[C@H](CCCN)NC(=O)[C@H](CC(=O)O)NC(=O)[C@H](CC(C)C)NC(=O)C(C)(CC(C)C)NC(=O)[C@@H](NC(=O)[C@H](CO)NC(=O)[C@H](Cc1ccncc1)NC(=O)[C@H](CC(=O)O)NC(=O)[C@H](CO)NC(=O)[C@@H](NC(=O)C(C)(Cc1ccccc1F)NC(=O)[C@@H](NC(=O)CNC(=O)[C@H](CCC(=O)O)NC(=O)C(C)(C)NC(=O)[C@@H](N)Cc1ccc(O)cc1)[C@@H](C)O)[C@@H](C)O)[C@@H](C)CC)[C@@H](C)CC)C(=O)N[C@@H](CCC(=O)O)C(=O)NCC(=O)NCC(=O)N1CCC[C@H]1C(=O)N[C@@H](CO)C(=O)N[C@@H](CO)C(=O)NCC(=O)N[C@@H](C)C(=O)N1CCC[C@H]1C(=O)N1CCC[C@H]1C(=O)N1CCC[C@H]1C(=O)N[C@@H](CO)C(N)=O (stereo partly shown) [Example 161],Emax,"[1]; HEK293, read-out: hGIPR Emax, % ± SEM, percent of maximal response to GIP(1-42)NH2, 37° C., 0.1% bovine casein, arithmetic mean",94.6 ± 1.21%
same,EC50,"[1]; hGIPR EC50, nM (SEM, n), cAMP, incubated at 37° C., 0.1% bovine casein (no human serum albumin)",0.0207 nM
same,EC50,"[2]; hGCGR EC50, nM (SEM, n), cAMP, incubated at 37° C., 0.1% bovine casein (no human serum albumin), geometric mean",> 9950 nM
same,EC50,"[3]; hGLP-1R EC50, nM (SEM, n), cAMP, incubated at 37° C., 0.1% bovine casein (no human serum albumin), geometric mean",0.203 nM
CC[C@H](C)[C@H](NC(=O)[C@H](CC(C)C)NC(=O)[C@](C)(Cc1ccc(O)cc1)NC(=O)[C@@H](CCC(=O)O)NC(=O)[C@@H](NC(=O)[C@H](Cc1ccccc1)NC(=O)[C@H](CCC(=O)O)NC(=O)C(C)(C)NC(=O)[C@H](CCC(N)=O)NC(=O)[C@H](C)NC(=O)[C@H](CCCCNC(=O)COCCOCCNC(=O)COCCOCCNC(=O)CC[C@H](NC(=O)CCCCCCCCCCCCC(=O)O)C(=O)O)NC(=O)[C@H](CCCN)NC(=O)[C@H](CC(=O)O)NC(=O)[C@H](CC(C)C)NC(=O)[C@](C)(CC(C)C)NC(=O)[C@@H](NC(=O)[C@H](CN)NC(=O)[C@@H](NC(=O)[C@H](CC(=O)O)NC(=O)[C@H](CO)NC(=O)[C@@H](NC(=O)[C@](C)(Cc1ccccc1F)NC(=O)[C@@H](NC(=O)CNC(=O)[C@H](CCC(=O)O)NC(=O)C(C)(C)NC(=O)[C@@H](N)Cc1ccc(O)cc1)[C@@H](C)O)[C@@H](C)O)C(C)C)[C@@H](C)CC)[C@@H](C)CC)C(=O)N[C@@H](CCC(=O)O)C(=O)NCC(=O)NCC(=O)N[C@@H](CCCCNC(=O)COCCOCCNC(=O)COCCOCCNC(=O)CC[C@H](NC(=O)CCCCCCCCCCCCC(=O)O)C(=O)O)C(=O)N[C@@H](CO)C(=O)N[C@@H](CO)C(=O)NCC(=O)N[C@@H](C)C(=O)N1CCC[C@H]1C(=O)N1CCC[C@H]1C(=O)N1CCC[C@H]1C(=O)N[C@@H](CO)C(N)=O [Example 201],Emax,[1]; [4],80.5%
same,Emax,[1]; [5],92.2 ± 3.26%
same,EC50,[2]; [6],> 9950 nM
same,EC50,[2]; [7],> 9950 nM
same,EC50,[3]; [8],25.1 nM
same,Emax,[3]; [9],105 ± 4.51%
